# Assay results: patent US20230102554A1 (GB002, INC., priority 2019, published 2023)
# Assays:
# [1] = target: T1, Human PDGFRα, cytoplasmic domain (GST-PDGFRα) (Homo sapiens, UniProt P16234); assay: Human PDGFRα biochemical inhibition assay (off-chip Mobility Shift Assay)
# T1 construct: made in house
# [2] = target: T2, Human PDGFRβ, cytoplasmic domain (GST-PDGFRβ) (Homo sapiens, UniProt P09619); assay: Human PDGFRβ biochemical inhibition assay (off-chip Mobility Shift Assay)
# T2 construct: made in house
# Outline: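 GST-tagged cytoplasmic domain (aa 557-1106) from baculovirus was incubated 1 h at room temperature with compound, CSKtide, ATP at Km and Mg²⁺ in HEPES buffer, pH 7.5. Phosphorylated and unphosphorylated peptide were separated by off-chip mobility shift, and the product ratio P/(P+S) gave percent inhibition.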
# T1 sequence (P16234 550-1089 T674I): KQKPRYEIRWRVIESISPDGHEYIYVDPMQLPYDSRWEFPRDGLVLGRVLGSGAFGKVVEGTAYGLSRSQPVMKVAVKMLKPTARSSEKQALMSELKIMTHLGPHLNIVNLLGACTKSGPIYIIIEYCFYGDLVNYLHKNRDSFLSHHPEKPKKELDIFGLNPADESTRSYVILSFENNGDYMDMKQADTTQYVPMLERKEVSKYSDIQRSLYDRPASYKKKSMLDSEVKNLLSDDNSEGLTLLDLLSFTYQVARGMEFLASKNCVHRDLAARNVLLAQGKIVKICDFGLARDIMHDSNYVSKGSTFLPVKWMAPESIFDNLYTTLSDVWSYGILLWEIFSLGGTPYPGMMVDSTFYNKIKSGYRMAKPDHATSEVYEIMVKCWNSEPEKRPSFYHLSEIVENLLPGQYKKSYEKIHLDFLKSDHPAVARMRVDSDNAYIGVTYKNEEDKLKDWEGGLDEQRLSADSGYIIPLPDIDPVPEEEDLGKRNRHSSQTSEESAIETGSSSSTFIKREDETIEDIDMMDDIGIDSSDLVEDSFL
# T2 sequence (P09619 with tags, fused parts or gaps): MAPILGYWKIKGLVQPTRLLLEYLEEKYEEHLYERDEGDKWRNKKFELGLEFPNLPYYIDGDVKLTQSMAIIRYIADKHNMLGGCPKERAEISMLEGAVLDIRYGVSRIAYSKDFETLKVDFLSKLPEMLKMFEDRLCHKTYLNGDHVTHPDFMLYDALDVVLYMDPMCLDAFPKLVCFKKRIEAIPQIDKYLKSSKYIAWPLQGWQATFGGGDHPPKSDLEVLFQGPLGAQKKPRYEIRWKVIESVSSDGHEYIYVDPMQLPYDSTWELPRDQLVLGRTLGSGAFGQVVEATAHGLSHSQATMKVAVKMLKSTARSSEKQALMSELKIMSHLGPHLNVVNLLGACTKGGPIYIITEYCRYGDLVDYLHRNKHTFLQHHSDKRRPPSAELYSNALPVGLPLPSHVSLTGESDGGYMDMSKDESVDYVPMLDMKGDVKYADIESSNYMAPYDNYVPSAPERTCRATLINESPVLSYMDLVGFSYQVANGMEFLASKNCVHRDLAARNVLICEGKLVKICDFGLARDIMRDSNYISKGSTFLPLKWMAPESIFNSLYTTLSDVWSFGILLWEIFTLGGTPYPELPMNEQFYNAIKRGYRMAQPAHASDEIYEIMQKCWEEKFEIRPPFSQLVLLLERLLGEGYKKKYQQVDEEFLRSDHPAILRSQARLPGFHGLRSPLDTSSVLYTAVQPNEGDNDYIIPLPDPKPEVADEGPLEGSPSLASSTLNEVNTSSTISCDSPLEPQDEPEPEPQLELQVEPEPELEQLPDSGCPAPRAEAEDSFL
Compound,IC50 [1] [nM],IC50 [2] [nM]
"C[C@H](Nc1cnc2cn(CC3CCC3)nc2n1)c1cc(NC(=O)c2cnc(C(F)(F)F)s2)ccc1F [Compound 390, (S)-N-(3-(1-((2-(cyclobutylmethyl)-2H-pyrazolo[3,4-b]pyrazin-6-yl)amino)ethyl)-4-fluorophenyl)-2-(trifluoromethyl)thiazole-5-carboxamide]",< 300,< 300
"C[C@H](Nc1cnc2cn(CC3CNC3)nc2n1)c1cc(NC(=O)c2cnc(C(F)(F)F)s2)ccc1F [Compound 391, (S)-N-(3-(1-((2-(azetidin-3-ylmethyl)-2H-pyrazolo[3,4-b]pyrazin-6-yl)amino)ethyl)-4-fluorophenyl)-2-(trifluoromethyl)thiazole-5-carboxamide]",< 300,< 300
"CCn1cc2ncc(N[C@@H](C)c3cccc(NC(=O)c4cnc(NCCOC)c(C)c4)c3)nc2n1 [Compound 392, (S)-N-(3-(1-((2-ethyl-2H-pyrazolo[3,4-b]pyrazin-6-yl)amino)ethyl)phenyl)-6-((2-methoxyethyl)amino)-5-methylnicotinamide]",300 to 1000,≥ 1000
"CCn1cc2ncc(N[C@@H](C)c3cccc(NC(=O)c4ccc(NC)nc4)c3)nc2n1 [Compound 393, (S)-N-(3-(1-((2-ethyl-2H-pyrazolo[3,4-b]pyrazin-6-yl)amino)ethyl)phenyl)-6-(methylamino)nicotinamide]",300 to 1000,≥ 1000
"CCNc1ccc(C(=O)Nc2cccc([C@H](C)Nc3cnc4cn(CC)nc4n3)c2)cn1 [Compound 394, (S)-N-(3-(1-((2-ethyl-2H-pyrazolo[3,4-b]pyrazin-6-yl)amino)ethyl)phenyl)-6-(ethylamino)nicotinamide]",< 300,≥ 1000
"CCn1cc2ncc(N[C@@H](C)c3cccc(NC(=O)c4ccc(NC(C)C)nc4)c3)nc2n1 [Compound 395, (S)-N-(3-(1-((2-ethyl-2H-pyrazolo[3,4-b]pyrazin-6-yl)amino)ethyl)phenyl)-6-(isopropylamino)nicotinamide]",< 300,300 to 1000
"CCn1cc2ncc(N[C@@H](C)c3cccc(NC(=O)c4cnc(N5CCN(C)CC5)c(C)c4)c3)nc2n1 [Compound 396, (S)-N-(3-(1-((2-ethyl-2H-pyrazolo[3,4-b]pyrazin-6-yl)amino)ethyl)phenyl)-5-methyl-6-(4-methylpiperazin-1-yl) nicotinamide]",< 300,< 300
"CCn1cc2ncc(N[C@@H](C)c3cccc(NC(=O)c4ccc(N5CCNCC5)nc4)c3)nc2n1 [Compound 397, (S)-N-(3-(1-((2-ethyl-2H-pyrazolo[3,4-b]pyrazin-6-yl)amino)ethyl)phenyl)-6-(piperazin-1-yl)nicotinamide]",300 to 1000,≥ 1000
"CCn1cc2ncc(N[C@@H](C)c3cccc(NC(=O)c4cnc(C5CCCC5)s4)c3)nc2n1 [Compound 398, (S)-2-cyclopentyl-N-(3-(1-((2-ethyl-2H-pyrazolo[3,4-b]pyrazin-6-yl)amino)ethyl)phenyl)thiazole-5-carboxamide]",< 300,< 300
"C[C@H](Nc1cnc2cn(C3CC3)nc2n1)c1cc(NC(=O)c2cnc(C(F)(F)F)s2)ccc1F [Compound 399, (S)-N-(3-(1-((2-cyclopropyl-2H-pyrazolo[3,4-b]pyrazin-6-yl)amino)ethyl)-4-fluorophenyl)-2-(trifluoromethyl)thiazole-5-carboxamide]",< 300,< 300
"CCn1cc2ncc(N[C@@H](C)c3cccc(NC(=O)c4cnc(C5OCCO5)s4)c3)nc2n1 [Compound 400, (S)-2-(1,3-dioxolan-2-yl)-N-(3-(1-((2-ethyl-2H-pyrazolo[3,4-b]pyrazin-6-yl)amino)ethyl)phenyl)thiazole-5-carboxamide]",300 to 1000,≥ 1000
"CCn1cc2ncc(N[C@@H](C)c3cccc(NC(=O)c4ccc(C=O)c(C)c4)c3)nc2n1 [Compound 401, (S)-N-(3-(1-((2-ethyl-2H-pyrazolo[3,4-b]pyrazin-6-yl)amino)ethyl)phenyl)-4-formyl-3-methylbenzamide]",< 300,< 300
"CCn1cc2ncc(N[C@@H](C)c3cccc(NC(=O)c4ccc(CN5CCN(C)CC5)c(C)c4)c3)nc2n1 [Compound 402, (S)-N-(3-(1-((2-ethyl-2H-pyrazolo[3,4-b]pyrazin-6-yl)amino)ethyl)phenyl)-3-methyl-4-((4-methylpiperazin-1-yl)methyl)benzamide]",< 300,< 300
"CCn1cc2ncc(N[C@@H](C)c3cccc(NC(=O)c4ccc(CN5CCOCC5)c(C)c4)c3)nc2n1 [Compound 403, (S)-N-(3-(1-((2-ethyl-2H-pyrazolo[3,4-b]pyrazin-6-yl)amino)ethyl)phenyl)-3-methyl-4-(morpholinomethyl) benzamide]",< 300,< 300
"CCn1cc2ncc(N[C@@H](C)c3cccc(NC(=O)c4ccc(CN5CCCC5)c(C)c4)c3)nc2n1 [Compound 404, (S)-N-(3-(1-((2-ethyl-2H-pyrazolo[3,4-b]pyrazin-6-yl)amino)ethyl)phenyl)-3-methyl-4-(pyrrolidin-1-ylmethyl) benzamide]",< 300,< 300
"CCn1cc2ncc(N[C@@H](C)c3cccc(NC(=O)c4ccc(NC(C)C)c(C)c4)c3)nc2n1 [Compound 405, (S)-N-(3-(1-((2-ethyl-2H-pyrazolo[3,4-b]pyrazin-6-yl)amino)ethyl)phenyl)-4-(isopropylamino)-3-methylbenzamide]",< 300,< 300
"CCn1cc2ncc(N[C@@H](C)c3cccc(NC(=O)Nc4ccc(OC(F)(F)F)nc4)c3)nc2n1 [Compound 407, (S)-1-(3-(1-((2-ethyl-2H-pyrazolo[3,4-b]pyrazin-6-yl)amino)ethyl)phenyl)-3-(6-(trifluoromethoxy)pyridin-3-yl) urea]",< 300,< 300
"CC[C@H](Nc1cnc2cn(CC)nc2n1)c1cccc(NC(=O)c2cncc(C)c2)c1 [Compound 408, (S)-N-(3-(1-((2-ethyl-2H-pyrazolo[3,4-b]pyrazin-6-yl)amino)propyl)phenyl)-5-methylnicotinamide]",300 to 1000,≥ 1000
"Cc1cncc(C(=O)Nc2ccc(F)c([C@H](C)Nc3cnc4cn(CC5CCNC5)nc4n3)c2)c1 (stereo partly drawn) [Compound 410, N-(4-fluoro-3-((1S)-1-((2-(pyrrolidin-3-ylmethyl)-2H-pyrazolo[3,4-b]pyrazin-6-yl)amino)ethyl)phenyl)-5-methylnicotinamide]",< 300,< 300
"Cc1cncc(C(=O)Nc2ccc(F)c([C@H](C)Nc3cnc4cn(CC5CNCCO5)nc4n3)c2)c1 (stereo partly drawn) [Compound 411, N-(4-fluoro-3-((1S)-1-((2-(morpholin-2-ylmethyl)-2H-pyrazolo[3,4-b]pyrazin-6-yl)amino)ethyl)phenyl)-5-methylnicotinamide]",< 300,< 300
"CCn1cc2ncc(N[C@@H](C)c3cc(NC(=O)c4ccc(N5CCN(C)CC5)c(C)c4)ccc3F)nc2n1 [Compound 412, (S)-N-(3-(1-((2-ethyl-2H-pyrazolo[3,4-b]pyrazin-6-yl)amino)ethyl)-4-fluorophenyl)-3-methyl-4-(4-methylpiperazin-1-yl)benzamide]",< 300,< 300
